One assay concerns the target T1, hEP3A/Gqi5 (Homo sapiens, UniProt P43115).
T1 construct: expressed in transfected cells; host or cells: HEK-293(EBNA)
T1 sequence (P43115 1-390): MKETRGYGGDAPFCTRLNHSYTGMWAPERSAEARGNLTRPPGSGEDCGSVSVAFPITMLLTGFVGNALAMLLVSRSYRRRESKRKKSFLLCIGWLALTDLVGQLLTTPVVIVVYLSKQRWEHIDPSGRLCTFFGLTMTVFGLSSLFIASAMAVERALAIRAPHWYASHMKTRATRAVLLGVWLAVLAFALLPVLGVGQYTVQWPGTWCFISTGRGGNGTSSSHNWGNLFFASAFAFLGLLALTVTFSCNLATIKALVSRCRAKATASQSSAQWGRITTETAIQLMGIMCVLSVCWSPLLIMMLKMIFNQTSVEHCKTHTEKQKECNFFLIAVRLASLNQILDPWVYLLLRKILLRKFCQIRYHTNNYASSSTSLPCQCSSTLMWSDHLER
The assay can be described thus: FLIPR calcium signal, hEP3A. Type of assay: cell-based. The settings on record: read-out: Other Receptors (EC50 in nM) hEP3A. How it is done:
(§1) HEK-293(EBNA) cells, stably expressing one type or subtype of recombinant human prostaglandin receptors (prostaglandin receptors expressed: hDP/Gqs5; hEP1; hEP2/Gqs5; hEP3A/Gqi5; hEP4/Gqs5; hFP; hIP; hTP), were cultured in 100 mm culture dishes in high-glucose DMEM medium containing 10% fetal bovine serum, 2 mM l-glutamine, 250 μg/ml geneticin (G418) and 200 μg/ml hygromycin B as selection markers, and 100 units/ml penicillin G, 100 μg/ml streptomycin and 0.25 μg/ml amphotericin B.
Cells were seeded at a density of 5×10^4 cells per well in Biocoat® Poly-D-lysine-coated black-wall, clear-bottom 96-well plates (Becton-Dickinson) and allowed to attach overnight in an incubator at 37° C. Cells were then washed two times with HBSS-HEPES buffer (Hanks Balanced Salt Solution without bicarbonate and phenol red, 20 mM HEPES, pH 7.4) using a Denley Cellwash plate washer (Labsystems). […]
Cells were excited with an Argon laser at 488 nm, and emission was measured through a 510-570 nm bandwidth emission filter (FLIPR™, Molecular Devices, Sunnyvale, Calif.). […] The peak increase in fluorescence intensity was recorded for each well. […] The peak fluorescence change in each drug-containing well was then expressed relative to the controls. […]

The next assay deals with T2, hEP4/Gqs5 (Homo sapiens, UniProt P35408).
T2 construct: expressed in transfected cells; host or cells: HEK-293(EBNA)
The assay can be described thus: FLIPR calcium signal, EP4. Type of assay: cell-based. Conditions: HEK-293(EBNA) cells. How it is done: as §1
Cells were seeded at a density of 5×10^4 cells per well in Biocoat® Poly-D-lysine-coated black-wall, clear-bottom 96-well plates (Becton-Dickinson) and allowed to attach overnight in an incubator at 37° C. Cells were then washed two times with HBSS-HEPES buffer (Hanks Balanced Salt Solution without bicarbonate and phenol red, 20 mM HEPES, pH 7.4) using a Denley Cellwash plate washer (Labsystems). After 45 minutes of dye-loading in the dark, using the calcium-sensitive dye Fluo-4 […] at a final concentration of 2 μM, plates were washed four times with HBSS-HEPES buffer to remove excess dye leaving 100 μl in each well. Plates were re-equilibrated to 37° C. for a few minutes.
Cells were excited with an Argon laser at 488 nm, and emission was measured through a 510-570 nm bandwidth emission filter (FLIPR™, Molecular Devices, Sunnyvale, Calif.). Drug solution was added in a 50 μl volume to each well to give the desired final concentration. The peak increase in fluorescence intensity was recorded for each well. On each plate, four wells each served as negative (HBSS-HEPES buffer) and positive controls (standard agonists: BW245C (hDP); PGE2 (hEP1; hEP2/Gqs5; hEP3A/Gqi5; hEP4/Gqs5); PGF2α (hFP); carbacyclin (hIP); U-46619 (hTP), depending on receptor). The peak fluorescence change in each drug-containing well was then expressed relative to the controls.
Compounds were tested in a high-throughput (HTS) or concentration-response (CoRe) format. In the HTS format, forty-four compounds per plate were examined in duplicates at a concentration of 10^−5 M. To generate concentration-response curves, four compounds per plate were tested in duplicates in a concentration range between 10^−5 and 10^−11 M. The duplicate values were averaged. In either, HTS or CoRe format each compound was tested on at least 3 separate plates using cells from different passages to give an n≧3.

For the next assay, the target named is EP2 (Homo sapiens, UniProt P43116). The experiment in a line: Competition binding [3H]PGE2, EP2 Ki. More on the design: expressed in transfected cells; host or cells: HEK 293. Conditions: [3H]PGE2 competition, HEK 293 cells expressing human EP2. How it is done: Competition binding experiments were performed in a medium containing Hank's balanced salt solution, Hepes 20 mM, pH 7.3, membranes (˜60 μg protein) or 2×10^5 cells from HEK 293 cells stably expressing human EP2 receptors, [^3H]PGE2 (10 nM) and various concentrations of test compounds in a total volume of 300 μl. Reaction mixtures were incubated at 23° C. for 60 min, and were filtered over Whatman GF/B filters under vacuum. Filters were washed three times with 5 ml ice-cold buffer containing 50 mM Tris/HCl (pH 7.3). Non-specific binding was estimated in the presence of excess unlabeled PGE2 (10 μM). Binding data fitted to the binding model for a single class of binding sites, using nonlinear regression analysis. IC50 values thus obtained were converted to Ki using the equation of Ki=(IC50/(1+[L]/KD) where [L] represents PGE2 concentration (10 nM) and KD the dissociation constant for [^3H]PGE2 at human EP2 receptors (40 nM).
HEK-293 cells stably expressing the human or feline FP receptor, or EP1, EP2, or EP4 receptors were washed with TME buffer, scraped from the bottom of the flasks, and homogenized for 30 sec using a Brinkman PT 10/35 polytron. TME buffer was added to achieve a final 40 ml volume in the centrifuge tubes (the composition of TME is 100 mM TRIS base, 20 mM MgCl2, […]; 10N HCl is added to achieve a pH of 7.4).
The cell homogenate was centrifuged at 19000 r.p.m. for 20 min at 4° C. using a Beckman Ti-60 rotor. The resultant pellet was resuspended in TME buffer to give a final 1 mg/ml protein concentration, as determined by Biorad assay. Radioligand binding competition assays vs. [^3H-]17-phenyl PGF2α (5 nM) were performed in a 100 μl volume for 60 min. Binding reactions were started by adding plasma membrane fraction. The reaction was terminated by the addition of 4 ml ice-cold TRIS-HCl buffer and rapid filtration through glass fiber GF/B filters using a Brandel cell harvester. The filters were washed 3 times with ice-cold buffer and oven dried for one hour.
[^3H-] PGE2 (specific activity 180 Ci mmol) was used as the radioligand for EP receptors. [^3H] 17-phenyl PGF2α was employed for FP receptor binding studies. Binding studies employing EP1, EP2, EP4 and FP receptors were performed in duplicate in at least three separate experiments. A 200 μl assay volume was used. Incubations were for 60 min at 25° C. and were terminated by the addition of 4 ml of ice-cold 50 mM TRIS-HCl, followed by rapid filtration through Whatman GF/B filters and three additional 4 ml washes in a cell harvester (Brandel). Competition studies were performed using a final concentration of 5 nM [^3H]-PGE2, or 5 nM [^3H] 17-phenyl PGF2α and non-specific binding determined with 10^−5M of unlabeled PGE2, or 17-phenyl PGF2α, according to receptor subtype studied.

Sequence of EP2 (P43116 whole entry): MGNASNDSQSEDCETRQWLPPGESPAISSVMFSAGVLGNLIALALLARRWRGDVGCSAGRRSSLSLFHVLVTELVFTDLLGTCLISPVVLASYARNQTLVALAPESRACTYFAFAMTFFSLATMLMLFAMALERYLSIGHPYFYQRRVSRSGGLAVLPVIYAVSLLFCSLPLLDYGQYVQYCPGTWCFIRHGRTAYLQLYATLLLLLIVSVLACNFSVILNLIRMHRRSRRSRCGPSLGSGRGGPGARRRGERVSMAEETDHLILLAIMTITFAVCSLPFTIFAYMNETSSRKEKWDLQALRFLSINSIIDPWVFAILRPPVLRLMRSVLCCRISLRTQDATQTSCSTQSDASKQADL
T2 sequence (P35408 whole entry): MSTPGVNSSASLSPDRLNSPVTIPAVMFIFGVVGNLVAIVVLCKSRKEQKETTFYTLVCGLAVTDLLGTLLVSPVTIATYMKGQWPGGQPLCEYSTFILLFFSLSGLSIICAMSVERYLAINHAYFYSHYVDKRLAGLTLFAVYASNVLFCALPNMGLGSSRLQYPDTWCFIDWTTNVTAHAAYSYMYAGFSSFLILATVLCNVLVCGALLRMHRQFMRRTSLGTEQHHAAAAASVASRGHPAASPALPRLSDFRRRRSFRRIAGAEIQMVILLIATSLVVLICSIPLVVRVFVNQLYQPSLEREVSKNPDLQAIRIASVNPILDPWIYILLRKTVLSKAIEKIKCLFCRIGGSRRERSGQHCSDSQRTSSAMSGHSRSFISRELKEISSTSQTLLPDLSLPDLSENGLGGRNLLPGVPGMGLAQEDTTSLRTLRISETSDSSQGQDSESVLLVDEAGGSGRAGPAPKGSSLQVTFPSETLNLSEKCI

`O=C(O)c1ccc(CCC[C@@H]2[C@@H](CCc3cc(F)cc(F)c3)[C@H](O)C[C@H]2Cl)s1` [11d, 5-(3-((1R,2R,3R,5R)-5-chloro-2-(3,5-difluorophenethyl)-3-hydroxycyclopentyl)propyl)thiophene-2-carboxylic acid]: the concentration giving a half-maximal response (EC50) (in general, the concentration at which the effect is half-maximal) on hEP3A/Gqi5 was 8540 nM; at hEP4/Gqs5, greater than 10 µM. On EP2, the Ki (in general, the dissociation constant of the complex between target and ligand, obtained from inhibition or displacement) worked out at 0.002 µM.
Regarding `O=C(O)c1ccc(CCC[C@@H]2[C@@H](CCc3cc(Cl)cc(Cl)c3)[C@@H](O)C[C@H]2Cl)s1` [compound 17, 5-(3-((1R,2R,3S,5R)-5-chloro-2-(3,5-dichlorophenethyl)-3-hydroxycyclopenty)propyl)thiophene-2-carboxylic acid], the EC50 on hEP3A/Gqi5 was greater than 10000 nM. At EP2, this compound had a Ki of 0.022 µM.
